The values that follow come from US20100048462A1, “TRUNCATED PTH PEPTIDES WITH A CYCLIC CONFORMATION” (Zealand Pharma A/S, priority 2006, published 2010).

The target of the experiment is T1, Saos-2 PTH1R (Homo sapiens, UniProt Q03431).
T1 construct: endogenous in cells; host or cells: Saos-2
T1 sequence (Q03431 27-593): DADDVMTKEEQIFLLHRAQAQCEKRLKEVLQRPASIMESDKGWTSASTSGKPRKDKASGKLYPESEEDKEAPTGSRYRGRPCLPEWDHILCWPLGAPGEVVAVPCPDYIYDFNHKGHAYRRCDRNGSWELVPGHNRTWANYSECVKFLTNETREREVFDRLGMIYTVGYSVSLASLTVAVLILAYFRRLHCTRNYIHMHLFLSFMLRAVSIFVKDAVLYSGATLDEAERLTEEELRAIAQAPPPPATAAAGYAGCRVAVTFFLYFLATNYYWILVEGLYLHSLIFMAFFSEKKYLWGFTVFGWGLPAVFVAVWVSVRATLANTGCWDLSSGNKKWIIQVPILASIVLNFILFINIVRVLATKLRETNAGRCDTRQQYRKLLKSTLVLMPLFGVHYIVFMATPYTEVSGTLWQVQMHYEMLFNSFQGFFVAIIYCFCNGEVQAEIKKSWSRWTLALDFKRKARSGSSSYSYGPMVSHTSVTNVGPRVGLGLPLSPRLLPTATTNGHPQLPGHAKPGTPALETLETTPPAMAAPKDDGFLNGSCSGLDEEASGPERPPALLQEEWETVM
Description: cAMP-efficacy assay in Saos-2 cells. In kind it is cell-based. The settings on record: for EC50: cAMP, 100 μM IBMX, 37° C. 15 min, suffix of label = salt tested; for Emax ± SEM: relative effect to the control (SEQ ID NO: 32). The protocol:
Peptides were dissolved in phosphate buffered saline and further diluted in Tyrode's buffer (TB, Sigma-Aldrich) containing 0.1% BSA and 100 μM isobutyl-methyl-xanthine (IBMX, Sigma-Aldrich). Saos-2 cells were seeded at 50,000 cells/well in 96-microtiter plates and grown for two days before the efficacy assays. On the day of analysis, the growth medium was carefully removed by suction. Cells were washed once with 200 μl TB/0.1% BSA. The buffer was replaced with 100 μl reaction mixture (±test peptide), and incubated at 37° C. for 15 min. The reaction was stopped by addition of 25 μl of ice-cold 0.5 M HCl. Cells were in the following incubated on ice for 60 min. 75 μl acetate-buffer, pH6.2, was added to each well of a 96-well cAMP FlashPlate (Perkin-Elmer). […] FlashPlates were incubated overnight at 4° C., emptied by suction and counted in a TopCounter (Packard).
Determinations were performed in single determinations or triplicates at all doses. […] Standards were included as single determinations, duplicates or triplicates in each experiment, preferentially on each plate.
Concentration-dependent cAMP responses were imported into GraphPad Prism vers. 4 (GraphPad Software), transformed and plotted. […] Thus, a four-parameter logistic equation was used for determination of the EC50 values. Curves were fitted with a function for sigmoidal dose response curve (variable slope) non-linear fit Y=Bottom+(Top-Bottom)/(1+10̂((LogEC50−X)*HillSlope)) where X is the logarithm of concentration and Y is the response. Y starts at Bottom and goes to Top with a sigmoid shape. pEC50, Hill-coefficient and the maximally inducible concentration of cAMP (Emax) were evaluated.
Overall statistical differences were analyzed with Statistica (Statsoft) using one-way ANOVA. Post-hoc comparisons were made by the use of Fisher's Least Significance Test. Results were considered significant, when p was lower than 0.05.

Bridge positions count the residues as written; N and C are the ends. Square brackets hold non-standard residues; d marks the D form. Peptide text beside a SMILES is read from it. hArg = N=C(N)NCCCC[C@H](N)C(=O)O; Ac5c = NC1(C(=O)O)CCCC1; Aib = CC(C)(N)C(=O)O

For the compound `CC[C@H](C)[C@H](NC(=O)[C@H](CCC(=O)O)NC(=O)C(C)(C)NC(=O)[C@@H](NC(=O)C1(N)CCCC1)C(C)C)C(=O)N[C@@H](CCC(N)=O)C(=O)N[C@@H](CC(C)C)C(=O)N[C@@H](CC(C)C)C(=O)N[C@@H](Cc1c[nH]cn1)C(=O)N[C@@H](CCC(N)=O)C(=O)N[C@@H](CCCCNC(=N)N)C(=O)N[C@@H](CCCNC(=N)N)C(=O)N[C@H]1CCCCNC(=O)C[C@@H](C(N)=O)NC(=O)[C@H](CC(N)=O)NC(=O)[C@H](CC(C)C)NC(=O)[C@H](Cc2c[nH]c3ccccc23)NC1=O` [SEQ ID NO: 28, H-Ac5c-Val-Aib-Glu-Ile-Gln-Leu-Leu-His-Gln-Har-Arg-Lys( )-Trp-Leu-Asn-Asp( )-NH2] (H-[Ac5c]V[Aib]EIQLLHQ[hArg]RKWLND-NH2; lactam 13-17), the EC50 – broadly, the concentration that produces a half-maximal response – was 5.37 nM and the “Emax ± SEM” value is 0.95 ± 0.06.

In the case of `CC[C@H](C)[C@H](NC(=O)[C@H](CCC(=O)O)NC(=O)C(C)(C)NC(=O)[C@@H](NC(=O)C1(N)CCCC1)C(C)C)C(=O)N[C@@H](CCC(N)=O)C(=O)N[C@@H](CC(C)C)C(=O)N[C@@H](CCSC)C(=O)N[C@@H](Cc1c[nH]cn1)C(=O)N[C@@H](CCC(N)=O)C(=O)N[C@@H](CCCCNC(=N)N)C(=O)N[C@@H](C)C(=O)N[C@@H](CCCCN)C(=O)N[C@@H](Cc1c[nH]c2ccccc12)C(=O)N[C@@H](CC(C)C)C(=O)N[C@@H](CC(N)=O)C(=O)N[C@@H](CC(=O)O)C(=O)O` [SEQ ID NO: 38, H-Ac5c-Val-Aib-Glu-Ile-Gln-Leu-Met-His-Gln-Har-Ala-Lys-Trp-Leu-Asn-Asp-OH] (H-[Ac5c]V[Aib]EIQLMHQ[hArg]AKWLND-OH), the EC50 is 100 nM and the “Emax ± SEM” value came out at 1.2.

In the case of `CC[C@H](C)[C@H](NC(=O)[C@H](CCC(=O)O)NC(=O)C(C)(C)NC(=O)[C@@H](NC(=O)C1(N)CCCC1)C(C)C)C(=O)N[C@@H](CCC(N)=O)C(=O)N[C@@H](CC(C)C)C(=O)N[C@@H](CC(C)C)C(=O)N[C@@H](Cc1c[nH]cn1)C(=O)N[C@@H](CCC(N)=O)C(=O)N[C@@H](CCCCNC(=N)N)C(=O)N[C@@H](C)C(=O)N[C@H]1CCCCNC(=O)C[C@@H](C(=O)O)NC(=O)[C@H](CC(N)=O)NC(=O)[C@H](CC(C)C)NC(=O)[C@H](Cc2c[nH]c3ccccc23)NC1=O` [SEQ ID NO: 5, H-Ac5c-Val-Aib-Glu-Ile-Gln-Leu-Leu-His-Gln-Har-Ala-Lys( )-Trp-Leu-Asn-Asp( )-OH] (H-[Ac5c]V[Aib]EIQLLHQ[hArg]AKWLND-OH; lactam 13-17), the EC50 is 72.4 nM and the “Emax ± SEM” value was 1.16 ± 0.12.

As to `CC[C@H](C)[C@H](NC(=O)[C@H](CCC(=O)O)NC(=O)C(C)(C)NC(=O)[C@@H](NC(=O)C1(N)CCCC1)C(C)C)C(=O)N[C@@H](CCC(N)=O)C(=O)N[C@@H](CC(C)C)C(=O)N[C@@H](CCSC)C(=O)N[C@@H](Cc1c[nH]cn1)C(=O)N[C@@H](CCC(N)=O)C(=O)N[C@@H](CCCCNC(=N)N)C(=O)N[C@@H](C)C(=O)N[C@H]1CCCCNC(=O)C[C@@H](C(N)=O)NC(=O)[C@H](CC(N)=O)NC(=O)[C@H](CC(C)C)NC(=O)[C@H](Cc2ccccc2)NC1=O` [SEQ ID NO: 26, H-Ac5c-Val-Aib-Glu-Ile-Gln-Leu-Met-His-Gln-Har-Ala-Lys( )-Phe-Leu-Asn-Asp( )-NH2] (H-[Ac5c]V[Aib]EIQLMHQ[hArg]AKFLND-NH2; lactam 13-17), the EC50 is 12.6 nM and the “Emax ± SEM” value stood at 1.08 ± 0.09.

For `CC[C@H](C)[C@H](NC(=O)[C@H](CCC(=O)O)NC(=O)C(C)(C)NC(=O)[C@@H](NC(=O)C1(N)CCCC1)C(C)C)C(=O)N[C@@H](CCC(N)=O)C(=O)N[C@@H](CC(C)C)C(=O)N[C@@H](CCSC)C(=O)N[C@@H](Cc1c[nH]cn1)C(=O)N[C@@H](CC(N)=O)C(=O)N[C@@H](CC(C)C)C(=O)NCC(=O)N[C@@H](CCCCN)C(=O)N[C@@H](Cc1c[nH]cn1)C(=O)N[C@@H](CC(C)C)C(=O)N[C@@H](CC(N)=O)C(=O)N[C@@H](CO)C(N)=O` [SEQ ID NO: 35] (H-[Ac5c]V[Aib]EIQLMHNLGKHLNS-NH2), the EC50 is 8130 nM and the “Emax ± SEM” value is on record as 1.20 ± 0.01.

Take `CC[C@H](C)[C@H](NC(=O)[C@H](CCC(=O)O)NC(=O)C(C)(C)NC(=O)[C@@H](NC(=O)C1(N)CCCC1)C(C)C)C(=O)N[C@@H](CCC(N)=O)C(=O)N[C@@H](CC(C)C)C(=O)N[C@@H](CCSC)C(=O)N[C@@H](Cc1c[nH]cn1)C(=O)N[C@@H](CCC(N)=O)C(=O)N[C@@H](CCCNC(=N)N)C(=O)N[C@@H](C)C(=O)N[C@H]1CCCCNC(=O)C[C@@H](C(N)=O)NC(=O)[C@H](CC(N)=O)NC(=O)[C@H](CC(C)C)NC(=O)[C@H](Cc2c[nH]c3ccccc23)NC1=O` [SEQ ID NO: 25] (H-[Ac5c]V[Aib]EIQLMHQRAKWLND-NH2; lactam 13-17): the EC50 is 8.91 nM and the “Emax ± SEM” value is given as 1.04 ± 0.03.

For `CC[C@H](C)[C@H](NC(=O)[C@H](CCC(=O)O)NC(=O)C(C)(C)NC(=O)[C@@H](NC(=O)C1(N)CCCC1)C(C)C)C(=O)N[C@@H](CCC(N)=O)C(=O)N[C@@H](CC(C)C)C(=O)N[C@@H](CCSC)C(=O)N[C@@H](Cc1c[nH]cn1)C(=O)N[C@@H](CCC(N)=O)C(=O)N[C@@H](CCCCNC(=N)N)C(=O)N[C@@H](C)C(=O)N[C@H]1CCCCNC(=O)C[C@@H](C(N)=O)NC(=O)[C@H](CC(N)=O)NC(=O)[C@H](CC(C)C)NC(=O)[C@H](Cc2c[nH]c3ccccc23)NC1=O` [2C, H-Ac5c-Val-Aib-Glu-Ile-Gln-Leu-Met-His-Gln-Har-Ala-Lys( )Trp-Leu-Asn-Asp( )-NH2] (H-[Ac5c]V[Aib]EIQLMHQ[hArg]AKWLND-NH2; lactam 13-17), the EC50 is 6.61 nM and the “Emax ± SEM” value is 0.94 ± 0.03.

For the compound `CC[C@H](C)[C@H](NC(=O)[C@H](CCC(=O)O)NC(=O)C(C)(C)NC(=O)[C@@H](NC(=O)C1(N)CCCC1)C(C)C)C(=O)N[C@@H](CCC(N)=O)C(=O)N[C@@H](CC(C)C)C(=O)N[C@@H](CC(C)C)C(=O)N[C@@H](Cc1c[nH]cn1)C(=O)N[C@@H](CCC(N)=O)C(=O)N[C@@H](CCCCNC(=N)N)C(=O)N[C@@H](C)C(=O)N[C@H]1CCCCNC(=O)C[C@@H](C(N)=O)NC(=O)[C@H](CC(=O)O)NC(=O)[C@H](CC(C)C)NC(=O)[C@H](Cc2c[nH]c3ccccc23)NC1=O` [SEQ ID NO: 22, H-Ac5c-Val-Aib-Glu-Ile-Gln-Leu-Leu-His-Gln-Har-Ala-Lys( )-Trp-Leu-Asp-Asp( )-NH2] (H-[Ac5c]V[Aib]EIQLLHQ[hArg]AKWLDD-NH2; lactam 13-17), the EC50 is 74.1 nM and the “Emax ± SEM” value is on record as 1.08 ± 0.04.
